From patent US20160166654A1, “COLLAGEN-TARGETED NANOPARTICLES” (PURDUE RESEARCH FOUNDATION, priority 2011, published 2016) come the findings set out here.

This data set deals with TNF-α production by human monocytes (THP-1). The experiment in a line: TNF-α production by THP-1 cells (ELISA). Format: cell-based. The following applies: 24 hours, FIG. 8. As to the method: The biocompatibility of the nanoparticles was assessed by measuring toxicity and inflammation in THP-1 cells. Cells were seeded at a density of 250,000 cells/ml in 96-well plates (Corning) and treated with 10 ng/ml phorbol 12-myristate 13-acetate (PMA, Sigma-Aldrich) for 48 hours to induce differentiation, which was confirmed by the monocytes becoming adherent. Following a change of media, cells were treated with various concentrations of core+shell nanoparticles. Control samples received PBS (negative control) or 50 ng/ml lipopolysaccharide (LPS, Sigma-Aldrich) (positive control). After 24 hours, the media was collected for cytokine analysis and an MTT-based assay was performed to determine cell toxicity using the Aqueous One Proliferation Kit (Promega) according to manufacturer's instructions. […] After two hours of incubation in the cell culture incubator, the absorbance was read at 490 nm with a correction at 650 nm.
The ability of the particles to cause an inflammatory response was determined by running conditioned cell media on a TNF-α ELISA (PeproTech) according to manufacturer instructions. […] Following incubation with a detection antibody and an avidin-horse radish peroxidase conjugate, the samples were developed with the addition of 2,2′-azino-bis(3-ethylbenzthiazoline-6-sulphonic acid) (ABTS) liquid substrate (Sigma-Aldrich) and monitored at 405 nm with a correction at 650 nm.

Regarding lipopolysaccharide, the TNF-α production entry is given as “did induce TNF-α production”.
